In patent EP4583874B1, “MULTITARGET NUCLEAR RECEPTOR LIGANDS BASED ON 2-(4-(QUINOLIN-2-YLOXY)PHENOXY)PROPANOIC ACID AND 2-(4-(QUINOXALIN-2-YLOXY)PHENOXY)PROPANOIC ACID FOR THE TREATMENT OF METABOLIC AND LIVER DISEASES” (CHARLES UNIVERSITY, FACULTY OF PHARMACY IN HRADEC KRALOVE, priority 2022, dated 2024):

Tests used:
C57BL/6J mice = experiment: Pilot study in mice, liver mRNA expression by RT-qPCR; type: in vivo; details: 3x 30 mg/kg p.o. gavage, liver 24 h after last application, vs vehicle
Experimental: Compounds 35 and 37 have been applied three times after 24 h (3x 30 mg/kg) via p.o. gavage to wild-type C57BL/6J mice. After 24 h from the last application, mice were sacrificed, and live samples collected on dry ice for total RNA isolation. RT-qPCR experiments have been performed with TaqMan probes and expression has been quantified using a reference gene (beta-actin and Gapdh) and delta-delta method. Data represents fold up or downregulation in mRNA expression for tested genes related to the expression in vehicle-treated control animals. * - statistically significant (p<0.05) up- or down- regulation in animals treated with tested compounds (n=4).
In the pilot study, compounds of the invention 37 and 35 were applied by per os probe (gavage) to male mice of age 15 weeks (n=4 per group) three times (3 x 30 mg/kg b.w.) in 1%PEG300/methylcellulose solution (compounds of EXAMPLE 37or 35). Livers were sampled 24 hours after application into liquid nitrogen for total RNA insolation and for qRT-PCR analysis (Quantstudio 7 HT Fast Real-Time PCR System).
(§1) Expressions of NR target genes mRNAs in livers of mice or in 3D cultured (spheroids) primary human hepatocytes have been performed using TaqMan probes-based RT-qPCR after isolation of total RNA by Trizol® (ThermoFischer Scientific) reagent and reverse transcription synthesis of cDNA in Quant Studio cycler. Real-time qPCR TaqMan probes have been purchased prom ThermoFisher scientific (Cat. No. 4351372 and 433118). Delta-delta method and Gapdh or TATA-box binding protein (TBP) housekeeping genes were used for relative quantification. Data are expressed as fold up-/down-regulation compared to vehicle-treated samples/mice.

[1] = system: C57BL/6J mice fed with high-fat diet; experiment: Proof-of-concept study in mice fed with high-fat diet, liver mRNA expression by RT-qPCR; type: in vivo; details: 10 mg/kg p.o. daily for three weeks, HFD mice
Experimental: The compound 37 has been applied daily (10 mg/kg) via p.o. gavage for three weeks to wild-type C57BL/6J mice fed with high-fat diet (HFD) for 24 weeks. After 24 h from the last application, mice were sacrificed, and live samples collected on dry ice for total RNA isolation. RT-qPCR experiments have been performed with TaqMan probes and expression has been quantified using a reference gene (Gapdh) and delta-delta method. Data represents fold up or downregulation in mRNA expression for tested genes related to the expression in vehicle-treated control animals. * - denotes statistically significant (p<0.05) up-regulation in animals treated with the compound of EXAMPLE 37 in comparison to animals fed with HFD only (n ≥ 10 in each groups). ^f - statistically significant effect of HFD diet on a gene expression. […]
as §1, with “Real-time qPCR TaqMan probes have been purchased prom ThermoFisher scientific (Cat. No. 4351372 and 433118).” left out

human FXR = target: T1, human FXR (Homo sapiens, UniProt Q96RI1); experiment: FXR responsive luciferase reporter gene assay (FXRE-luc + human FXR expression construct) in HepG2 cells; type: cell-based; details: HepG2, 24 h
T1 construct: expressed in transfected cells; host or cells: HepG2
T1 sequence (Q96RI1 1-486): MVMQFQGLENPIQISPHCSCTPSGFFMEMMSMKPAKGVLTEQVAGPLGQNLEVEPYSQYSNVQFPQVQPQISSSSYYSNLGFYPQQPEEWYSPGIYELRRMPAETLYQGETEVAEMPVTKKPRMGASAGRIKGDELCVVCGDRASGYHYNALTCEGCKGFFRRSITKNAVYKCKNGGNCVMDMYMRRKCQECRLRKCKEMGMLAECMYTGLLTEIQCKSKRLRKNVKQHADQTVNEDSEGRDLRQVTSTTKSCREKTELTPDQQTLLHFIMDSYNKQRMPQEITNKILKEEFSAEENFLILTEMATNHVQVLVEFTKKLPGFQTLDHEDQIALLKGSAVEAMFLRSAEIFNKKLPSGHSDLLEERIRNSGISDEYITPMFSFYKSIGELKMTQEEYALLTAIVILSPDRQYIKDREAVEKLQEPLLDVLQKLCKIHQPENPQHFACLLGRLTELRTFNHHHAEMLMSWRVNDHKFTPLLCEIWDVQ
Description: In HepG2 cells, luciferase gene reporter assays have been performed with the transiently transfected reporter gene luciferase construct with the UAS yeast binding site interacting with GAL4 protein (pGL5-UAS 9x, Promega). DNA constructs encoding human LBD domains of human PPARα, PPARγ, of LXRα (pGAL4-PPARα, pGAL4-PPARγ, pGAL4-LXRα) have been cotransfected with the reporter construct. For FXR, FXRE-luc construct with FXR response elements upstream of Firefly luciferase has been used together with an expression construct for human FXR for HepG2 cells transfection. HepG2 cells were then treated with compounds of the invention for 24 h.

human PPARγ = target: T2, human PPARγ (Homo sapiens, UniProt P37231); experiment: PPARγ luciferase reporter gene assay (pGAL4-PPARγ / pGL5-UAS 9x) in HepG2 cells; type: cell-based; details: HepG2, 24 h
T2 construct: DNA constructs encoding human LBD domains of human PPARα, PPARγ, of LXRα (pGAL4-PPARα, pGAL4-PPARγ, pGAL4-LXRα); expressed in transfected cells; host or cells: HepG2
T2 sequence (P37231 238-503 limits assumed): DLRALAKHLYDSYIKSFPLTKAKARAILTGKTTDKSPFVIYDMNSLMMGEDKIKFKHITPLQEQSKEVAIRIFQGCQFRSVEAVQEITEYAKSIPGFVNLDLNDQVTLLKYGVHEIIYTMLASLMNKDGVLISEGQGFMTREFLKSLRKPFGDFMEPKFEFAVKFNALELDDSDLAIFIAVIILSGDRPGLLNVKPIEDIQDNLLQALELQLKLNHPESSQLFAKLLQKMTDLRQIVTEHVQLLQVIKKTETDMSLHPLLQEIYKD

Cyp7a1 expression in the mouse liver (C57BL/6J mice): down-regulates | Emax at 10 µM (human FXR): 77% | Emax at 10 µM (human PPARγ): 1%
Structure (SMILES): C[C@@H](Oc1ccc(Oc2ccc3c(Cl)cccc3n2)cc1)C(=O)O [compound 37, (R)-2-(4-((5-Chloroquinolin-2-yl)oxy)phenoxy)propanoic acid]
Fasn gene expression in the mouse liver (C57BL/6J mice): down-regulate | Pck1 gene expression in the mouse liver (C57BL/6J mice): down-regulate | cholesterol efflux transporters Abcg5/8 expression in the mouse liver (C57BL/6J mice): down-regulates | key protein involved in fatty acid (beta) oxidation, mRNA expression in the mouse liver (C57BL/6J mice): up-regulate | key genes of gluconeogenesis [1]: down-regulated | key genes involved in fatty acid (beta) oxidation (Ucp2, Hadha and Hadha) in mouse livers ([1]; vs HFD only): up-regulates
